≈ marks a conversion by molar mass, not a printed value. Read-outs that look alike come from different tables or passages of the source.
System: He-La cells
Experiment: cytotoxic activity on He-La cells (inhibition of cellular growth, protein determination)
Assay type: cell-based
Details: Homo sapiens, HeLa, read-out: ID50 (inhibitory dose 50, dose which inhibits cellular growth by 50%)
Method: Testing commences using a culture having approximately 125,000 cells per milliliter. They are dispersed with trypsin and are maintained in suspension by stirring until the moment they are placed in tubes.
After 72 hours the results are read.

[1] = He-La cells, monolayer, 72 hours, protein determination (modified Lowry)

| SMILES | IC50 [1] [µg/mL] | IC50 (72 h) [µg/mL] |
| --- | --- | --- |
| CN(C)CCCN1C(=O)c2cccc3cc([N+](=O)[O-])cc(c23)C1=O [Example 1, N-(3-dimethylaminopropyl)-3-nitro-1,8-naphthalimide] | 1 (≈ 3.05 µM) |  |
| CCN(CC)CCCN1C(=O)c2cccc3cc([N+](=O)[O-])cc(c23)C1=O [Example 2, N-(3-diethylaminopropyl)-3-nitro-1,8-naphthalimide] | 5 (≈ 14.1 µM) |  |
| O=C1c2cccc3cc([N+](=O)[O-])cc(c23)C(=O)N1CCN1CCOCC1 [Example 3, N-2-(N-morpholino)-ethyl-3-nitro-1,8-naphthalimide] | 20 (≈ 56.3 µM) |  |
| CCN1CCCC(N2C(=O)c3cccc4cc([N+](=O)[O-])cc(c34)C2=O)C1 (stereo not drawn) [Example 4, N-3-(1-ethylpiperidino)-3-nitro-1,8-naphthalimide] | 6 (≈ 17 µM) |  |
| CN1CCN(CCCN2C(=O)c3cccc4cc([N+](=O)[O-])cc(c34)C2=O)CC1 [Example 5, N-3-(4-methyl-1-piperazino)-propyl-3-nitro-1,8-naphthalimide] | 2 (≈ 5.23 µM) |  |
| CN(C)N1C(=O)c2cccc3cc([N+](=O)[O-])cc(c23)C1=O [Example 6, N-dimethylamino-3-nitro-1,8-naphthalimide] | > 100 |  |
| O=C1c2cccc3cc([N+](=O)[O-])cc(c23)C(=O)N1N1CCCC1 [Example 7, N-(1-pyrrolidino)-3-nitro-1,8-naphthalimide] | > 100 |  |
| NC(=O)NN1C(=O)c2cccc3cc([N+](=O)[O-])cc(c23)C1=O [Example 8, N-ureyl-3-nitro-1,8-naphthalimide] | > 100 |  |
| CN(C)CCN1C(=O)c2cccc3cc(N)cc(c23)C1=O [Example 9] | 2.5 (≈ 8.82 µM) |  |
| CCN(CC)CCN1C(=O)c2cccc3cc(N)cc(c23)C1=O [Example 10, N-(2-diethylaminoethyl)-3-amino-1,8-naphthalimide] | 3 (≈ 9.63 µM) |  |
| Nc1cc2c3c(cccc3c1)C(=O)N(CCN1CCCC1)C2=O [Example 11, N-[2-(1-pyrrolidino)-ethyl]-3-amino-1,8-naphthalimide] |  | 1.5 (≈ 4.85 µM) |
| Nc1cc2c3c(cccc3c1)C(=O)N(CCN1CCCCC1)C2=O [Example 12, N-[2-(1-piperidino)-ethyl]-3-amino-1,8-naphthalimide] | 8 (≈ 24.7 µM) |  |
| Nc1cc2c3c(cccc3c1)C(=O)N(CCN1CCOCC1)C2=O [Example 13, N-[2-(1-morpholino)-ethyl]-3-amino-1,8-naphthalimide] | 10 (≈ 30.7 µM) |  |
| CN(C)CCCN1C(=O)c2cccc3cc(N)cc(c23)C1=O [Example 14, N-(3-dimethylaminopropyl)-3-amino-1,8-naphthalimide] | 5 (≈ 16.8 µM) |  |
| CCN(CC)CCCN1C(=O)c2cccc3cc(N)cc(c23)C1=O [Example 15, N-(3-diethylaminopropyl)-3-amino-1,8-naphthalimide] | 25 (≈ 76.8 µM) |  |
| CN1CCN(CCCN2C(=O)c3cccc4cc(N)cc(c34)C2=O)CC1 [Example 16, N-[3-(4-methyl-1-piperazino)-propyl]-3-amino-1,8-naphthalimide] | 10 (≈ 28.4 µM) |  |
| CN(C)N1C(=O)c2cccc3cc(N)cc(c23)C1=O [Example 17, N-dimethylamino-3-amino-1,8-naphthalimide] | 100 (≈ 392 µM) |  |

| SMILES | IC50 [1] [µg/mL] | IC50 (72 h) [µg/mL] |
| --- | --- | --- |
| CN(C)CCN1C(=O)c2cccc3cc(Cl)cc(c23)C1=O [Example 18, N-(2-dimethylaminoethyl)-3-chloro-1,8-naphthalimide] | 0.8 (≈ 2.64 µM) |  |
| O=C1c2cccc3cc(Cl)cc(c23)C(=O)N1CCN1CCCC1 [Example 19, N-[2-(1-pyrrolidino)-ethyl]-3-chloro-1,8-naphthalimide] | 1.5 (≈ 4.56 µM) |  |
| O=C1c2cccc3cc(Cl)cc(c23)C(=O)N1CCN1CCCCC1 [Example 20, N-[2-(1-piperidino)-ethyl]-3-chloro-1,8-naphthalimide] | 3.5 (≈ 10.2 µM) |  |
| O=C1c2cccc3cc(Cl)cc(c23)C(=O)N1CCN1CCOCC1 [Example 21, N-[2-(1-morpholino)-ethyl]-3-chloro-1,8-naphthalimide] | 100 (≈ 290 µM) |  |
| CN(C)CCCN1C(=O)c2cccc3cc(Cl)cc(c23)C1=O [Example 22, N-(3-dimethylaminopropyl)-3-chloro-1,8-naphthalimide] | 2 (≈ 6.31 µM) |  |
| CN(C)CCN1C(=O)c2cccc3cc(O)cc(c23)C1=O [Example 23, N-(2-dimethylaminoethyl)-3-hydroxy-1,8-naphthalimide] | 3 (≈ 10.6 µM) |  |
| O=C1c2cccc3cc(O)cc(c23)C(=O)N1CCN1CCCC1 [Example 24, N-[2-(1-pyrrolidino)-ethyl]-3-hydroxy-1,8-naphthalimide] | 3.5 (≈ 11.3 µM) |  |
| O=C1c2cccc3cc(O)cc(c23)C(=O)N1CCN1CCOCC1 [Example 25, N-[2-(1-morpholino)-ethyl]-3-hydroxy-1,8-naphthalimide] | 100 (≈ 306 µM) |  |
| COc1cc2c3c(cccc3c1)C(=O)N(CCN(C)C)C2=O [Example 26, N-(2-dimethylaminoethyl)-3-methoxy-1,8-naphthalimide] | 1.5 (≈ 5.03 µM) |  |
| COc1cc2c3c(cccc3c1)C(=O)N(CCN1CCCC1)C2=O [Example 27, N-[2-(1-pyrrolidino)-ethyl]-3-methoxy-1,8-naphthalimide] | 0.75 (≈ 2.31 µM) |  |
| CCOC(=O)Nc1cc2c3c(cccc3c1)C(=O)N(CCN(C)C)C2=O [Example 28, N-(dimethylaminoethyl)-3-ethoxycarbonylamino-1,8-naphthalimide] | 10 (≈ 28.1 µM) |  |
| CCOC(=O)Nc1cc2c3c(cccc3c1)C(=O)N(CCN1CCCC1)C2=O [Example 29, N-[2-(1-pyrrolidino)-ethyl]-3-ethoxycarbonylamino-1,8-naphthalimide] | 10 (≈ 26.2 µM) |  |
| CC(=O)Nc1cc2c3c(cccc3c1)C(=O)N(CCN(C)C)C2=O [Example 30, N-(2-dimethylaminoethyl)-3-acetylamino-1,8-naphthalimide] | 4 (≈ 12.3 µM) |  |
| CC(=O)Nc1cc2c3c(cccc3c1)C(=O)N(CCN1CCCC1)C2=O [Example 31, N-[2-(1-pyrrolidino)-ethyl]-3-acetylamino-1,8-naphthalimide] | 5 (≈ 14.2 µM) |  |
| O=C1c2cccc3cc(S(=O)(=O)O)cc(c23)C(=O)N1CCN1CCCC1 [Example 32, N-[2-(1-pyrrolidino)ethyl]-3-sulfo-1,8-naphthalimide] | > 100 |  |
| CN(C)CCN1C(=O)c2cccc3cc(C(C)(C)C)cc(c23)C1=O [Example 33, N-(2-dimethylaminoethyl)-3-tert-butyl-1,8-naphthalimide] | 14 (≈ 43.2 µM) |  |

Source: US4204063A, “N(Aminoalkyl)-naphthalimides and their derivatives” (priority 1977, dated 1980)
